In patent US8287911B2, “Endotoxin adsorbent for the prevention and treatment of autoimmune diseases” (Chondrex Inc., priority 2006, dated 2012):
Where “and” joins values, the source holds several entries; their conditions need not be identical. Identical values can stand only once. Like-named read-outs stand apart in the source and are kept apart here.

Key:
[1] = assay type: binding, E. coli O-111; conditions: for LPS Activity Remaining, 10 mm / LPS Activity Remaining, 20 mm / LPS Activity Remaining, Before: 1 mL LPS 5 μg/mL; for LPS Activity Remaining, 10 mm / LPS Activity Remaining, 20 mm: 37° C.; for LPS Activity Remaining, 10 mm: 10 minutes after adding resin; for LPS Activity Remaining, 20 mm: 20 minutes after adding resin; for LPS Activity Remaining, Before: supernatant before adding resin (baseline)
Protocol: Endotoxin was assayed by an end point colorimetric assay method using Endospecy-ES24S kit (Seikagaku Kogyo, Japan). Lipopolysaccharide (LPS) from E. coli O-111 (Sigma L4130) was dissolved in pyrogen-free water at 5 μg/mL. One mL of this LPS solution was mixed with 50 μg and 100 μg of RPMB-1, and 100 μg of polymixin B-unconjugated resin (control) and incubated at 37° C. with stirring. Endotoxin levels were determined in the supernatant before, 10 and 20 minutes after adding the resins.

[2] = Endotoxin adsorption and elimination capacity (2), LPS-binding capacity from OD210 of supernatant; design: species or system E. coli O-111; conditions: for Endotoxin-Binding capacity (LP5 mg/g*): converted to dry weight of LPS per gram resin; for Endotoxin-Binding Capacity: per gram resin, method of Example 11
Protocol: The LPS binding capacity of the endotoxin-adsorbent in a test tube was determined according to the method described in “endotoxin test procedures” in Japanese Pharmacopoeia, in addition to a simple assay method of LPS by measuring OD values, which was developed during this invention. The experimental procedures and results are shown in EXAMPLE 10 and 11 in detail.
The endotoxin-binding capacity of polymixin B conjugates was also studied. LPS (Sigma L4130) was dissolved in pyrogen-free water at 0.2 mg/mL, and 4 mL of this solution was added to a test tube containing 20.6 mg of RPMB-1, and incubated at 37° C. with stirring. The supernatant was collected every 30 minutes by centrifugation and the OD values at 210 nm was determined. The OD210 value was dropped from 1 to 0.6 within the first 30 minutes of incubation and remained unchanged afterwards. […] Therefore, it was assumed that 20.6 mg of LPS adsorbent added in the first test tube was saturated with LPS. Accordingly, an LPS adsorption capacity of RPMB-1 was calculated based on the OD value changes of LPS solution. Since the LPS preparation used in this experiment was not pure and contaminated by DNA and proteins, it was assumed that the final OD value of 0.4 reflected the OD value of such contaminants. Based on this assumption, it was calculated that 1 g of RPMB is capable of binding approximately 25.9 mg of LPS (Sigma L4130) using the following formula: (0.8 mg×0.4/0.6)/0.0206=25.9 mg Since the endotoxin unit of this LPS preparation is 1.1×10^6 EU/mg, it was calculated that 1 g of RPMB-1 is capable of binding 29×10^6 EU of endotoxin.
Polymixin B-conjugated resins prepared in Examples 1-7 were analyzed for their particle size distribution by the method described in Example 9 and assayed for the endotoxin-binding capacity by the method described in Example 11 to study the relationship between particle size and LPS-binding capacity. AffiPrep poplymixin B (BioRad, USA) was used as a reference.
The endotoxin-binding capacity of individual batches of endotoxin-adsorbents prepared by conjugating with 3 million units of polymixin B was compared and expressed as endotoxin units (EU) per gram weight of resin as well as LPS weight per gram resin. The weight of LPS was obtained by converting the EU values based on the EU value per mg of LPS preparation (Sigma L4130, LPS preparation from E. coli O-111, B4, by trichloroacetic acid extraction) used for this experiment.

[3] = Particle size distribution, microscopic method (Japanese Pharmacopoeia); assay type: physicochemical; conditions: for 50% Particle Size: resins of Examples 1-7 and reference, method of Example 9
Protocol: The particle size of the endotoxin-adsorbent was determined based on the particle size distribution method. The particle distribution analysis was performed according to “The method for determining particle size distribution. Method 1: Microscopic method” in the second supplement of the general test procedures, section 65, Japanese Pharmacopoeia, 13th Issue. The 50% particle size (μm) was explained as the diameter of particles of the corresponding values of the accumulative volume of particles is 50%.
The particle size distribution was measured according to “Measurement of Particle Size Distribution. Method 1: Microscopic method” in the second supplement of the general test procedures, Section 65, Japanese Pharmacopoeia, 13th Issue. The microscope and camera used for this experiment was Nikon ECLIPSE E600 and Victor KY-F55B, respectively. The collected data was analyzed using Nano Hunter NS2K-Pro. The 50% particle size of RPMB was 213 μm, and the content of small particles not more than 5 μm in a diameter was 0%.

[4] = tested on: autoantibody mediated, LPS-induced arthritis; test: Autoantibody mediated, LPS-induced arthritis model; assay type: in vivo, DBA/1JNCrj mice; conditions: experiment 1, day 7; for Severity of Arthritis (score): average of 5 mice, maximum 16 per mouse; for Incidence of Arthritis: mice with arthritis/5
Source text: The therapeutic effect of the endotoxin-adsorbent on autoimmune diseases can be determined in the mouse arthritis model as described in our previous invention, JP-A 2006-151914. Briefly, arthritis can be induced in 100% of mice by IP injection of enough amounts of anti-type II collagen monoclonal antibody cocktail (Chondrex Inc., Redmond, Wash., USA) within 3 days (Terato K et al. Induction of arthritis with monoclonal antibodies to collagen. J. Immunol. 148:2103-2108, 1992). By reducing the dose of the monoclonal antibody cocktail to 2 mg, all mice remained normal without developing arthritis. However, oral administration of 3 mg of LPS on 3 consecutive days from day 0, day 1, day 2 […] into these mice induced clinically apparent arthritis, which reached the peak on day 6-7. Furthermore, one group of mice was co-administered with indomethasin and ovoinhibitor, a protease-inhibitor purified from egg white. The combination of indomethasin and ovoinhibitor was used to increase the mucosal permeability of gastro-intestinal mucosa. In these mice, the effect of LPS was more significant, and more severe arthritis was induced by oral administration of a same dose of LPS. Using this arthritis model induced by a combination of monoclonal antibody and LPS, the therapeutic effect of the endotoxin-adsorbent can be determined. The benefit of this model is multifold: time of experimentation is short compared with an authentic collagen-induced arthritis model, the standard deviation of severity of arthritis among individual mice is much less, and the effect of the LPS-adsorbent is clearly determined.
DBA/1JNCrj mice (Japan Charles River) were divided into 5 groups (G1-G5, 5 mice per group). In order to increase the mucosal permeability, all mice received 40 μg of indomethasin (Sigma) and 2 mg of ovomucoid (Sigma) for 5 consecutive days from day −6 to −2 by the oral route. On day 0, all mice received an IV injection of 0.2 mL of arthritogenic monoclonal antibody cocktail (10 mg/mL). Endotoxin derived from E. coli O-111 (Phenol extracted LPS, Sigma) was dissolved in PBS at 7.5 mg/mL, and 0.2 mL of this solution was administered into G1-G4 mice by the oral route for 3 consecutive days from day 0 to 2. Endotoxin-adsorbent, RPMB-1, was suspended in distilled water at 100 mg/mL, and deaerated by a vacuum pump to keep the particles in uniform suspension by preventing the aggregation of the particles. The RPMB-1 suspension was administered to mice at doses of 0.125 mL (G2), 0.25 mL (G3) and 0.5 mL (G4) twice a day for 4 consecutive days from day 0 to 3 after LPS administration. G1 received 0.25 mL of water alone. Mice in G5, a positive control of arthritis, received IP injection of 0.1 mL of LPS solution (0.5 mg/mL in PBS) on day 3.
Severity of arthritis was scored by 5 grades, 0: normal without any swelling, 1: clinically apparent swelling of one digit, 2: moderate redness and swelling of more than 2 digits or moderate redness and swelling of the entire paw, 3: severe redness and swelling of the entire paws, and 4: maximum inflamed limb with involvement of multiple joints. The sum of the arthritis score (maximum 16 per mouse) of individual animals was calculated. The effect of the endotoxin-adsorbent was calculated based on the average score of 5 mice using the following equation: Suppression of arthritis(%)=(1−Average score of test group/Average score of control group)×100
Since the arthritis scores reached a maximum on day 7, the effect of the endotoxin-adsorbent was calculated using the scores on day 7. The suppression of arthritis by RPMB prepared in EXAMPLE 2 at 25 mg, 50 mg and 100 mg per mouse by oral administration is shown in Table 3.

[5] = tested on: autoantibody mediated, LPS-induced arthritis; test: Autoantibody mediated, LPS-induced arthritis model; assay type: in vivo, DBA/1JNCrj mice; conditions: experiment 2; for Severity of Arthritis (score) / Incidence of Arthritis: 10 mg/mouse oral; for Severity of Arthritis (score): average of 5 mice, maximum 16 per mouse; for Incidence of Arthritis: mice with arthritis/5; for effect on development of arthritis (in words): dose of 10 mg per mouse

Substance: Epoxyacryl Resin-Polymixin B Conjugate [RPMB-1]
- LPS Activity Remaining, 10 mm ([1]; resin amount 50 μg): 2403 EU/mL
- LPS Activity Remaining, 20 mm ([1]; resin amount 50 μg): 1207 EU/mL
- LPS Activity Remaining, Before ([1]; resin amount 50 μg): 5632 EU/mL
- LPS Activity Remaining, 10 mm ([1]; resin amount 100 μg): 1004 EU/mL
- LPS Activity Remaining, 20 mm ([1]; resin amount 100 μg): 170 EU/mL
- LPS Activity Remaining, Before ([1]; resin amount 100 μg): 5526 EU/mL
- LPS adsorption (in words) ([1]; versus polymixin B-unconjugated control resin): specifically adsorbed
- OD value of supernatant after adding fresh resin ([2]; 20.5 mg fresh resin added to the supernatant, reduced from 0.6): 0.4
- OD210 value of supernatant ([2]; 20.6 mg resin in 4 mL LPS 0.2 mg/mL, 37° C., within first 30 minutes, dropped from 1): 0.6
- Endotoxin-Binding capacity (LP5 mg/g*) [2]: 26.5 mg/g
- endotoxin bound by 1 g of resin ([2]; per 1 g resin, calculated with 1.1×10^6 EU/mg LPS): 29×10^6 EU
- Endotoxin-Binding Capacity [2]: 29 × 10^6 EU/g
- 50% Particle Size [3]: 32 μm
- Severity of Arthritis (score) ([4]; 25 mg/mouse oral): 9 score and 6.4 ± 1.8 score
- Incidence of Arthritis ([4]; 25 mg/mouse oral): 4 out of 5 and 4/5
- Severity of Arthritis (score) ([4]; 50 mg/mouse oral): 2 score and 2 ± 2.8 score
- Incidence of Arthritis ([4]; 50 mg/mouse oral): 2 out of 5 and 2/5
- Severity of Arthritis (score) ([4]; 100 mg/mouse oral): 0 ± 0 score
- Incidence of Arthritis ([4]; 100 mg/mouse oral): None of the five mice and 0/5

Substance: Epoxyacryl Resin-Polymixin B Conjugate [RPMB-2]
- Endotoxin-Binding capacity (LP5 mg/g*) [2]: 105 mg/g
- Endotoxin-Binding Capacity [2]: 120 × 10^6 EU/g
- 50% Particle Size [3]: 32 μm
- Severity of Arthritis (score) [5]: 0 ± 0 score
- Incidence of Arthritis [5]: 0/5
- effect on development of arthritis (in words) [5]: suppressed the development of arthritis almost completely

Substance: Epoxyacryl Resin-Polymixin B Conjugate [RPMB]
- Endotoxin-Binding capacity (LP5 mg/g*) [2]: 17.5 mg/g
- LPS bound by 1 g of resin ([2]; per 1 g resin, calculated from OD value changes, (0.8 mg×0.4/0.6)/0.0206): approximately 25.9 mg
- Endotoxin-Binding Capacity [2]: 20 × 10^6 EU/g
- Distribution of Particle Size: 10% Diameter ([3]; 1006 particles analyzed): 160 (μm)
- Distribution of Particle Size: 90% Diameter ([3]; 1006 particles analyzed): 266 (μm)
- Distribution of Particle Size: Average Diameter ([3]; 1006 particles analyzed): 197 (μm)
- content of small particles not more than 5 μm in a diameter ([3]; 1006 particles analyzed): 0%
- 50% Particle Size [3]: 213 μm

Substance: Weakly Acidic Cation-Exchange Resin-Polymixin B Conjugate [1/300]
- Endotoxin-Binding capacity (LP5 mg/g*) [2]: 6.7 mg/g
- Endotoxin-Binding Capacity [2]: 7.7 × 10^6 EU/g
- 50% Particle Size [3]: 400 μm

Substance: Weakly Acidic Cation-Exchange Resin-Polymixin B Conjugate [1M/300]
- Endotoxin-Binding capacity (LP5 mg/g*) [2]: 120 mg/g
- Endotoxin-Binding Capacity [2]: 136.3 × 10^6 EU/g
- 50% Particle Size [3]: 29 μm
- Severity of Arthritis (score) [5]: 0 ± 0 score
- Incidence of Arthritis [5]: 0/5
- effect on development of arthritis (in words) [5]: suppressed the development of arthritis almost completely

Substance: Weakly Acidic Cation-Exchange Resin-Polymixin B Conjugate [4/300]
- Endotoxin-Binding capacity (LP5 mg/g*) [2]: 6.3 mg/g
- Endotoxin-Binding Capacity [2]: 7.2 × 10^6 EU/g
- 50% Particle Size [3]: 400 μm

Substance: Weakly Acidic Cation-Exchange Resin-Polymixin B Conjugate [4M/300]
- Endotoxin-Binding capacity (LP5 mg/g*) [2]: 30 mg/g
- Endotoxin-Binding Capacity [2]: 29.5 × 10^6 EU/g
- 50% Particle Size [3]: 26 μm
- Severity of Arthritis (score) [5]: 0.8 ± 1.8 score
- Incidence of Arthritis [5]: 1/5
- effect on development of arthritis (in words) [5]: suppressed the development of arthritis almost completely
